Legend:
human PDHK2 (hPDHK2) = molecular target: T1, human PDHK2 (hPDHK2) (Homo sapiens, UniProt Q15119); assay: Inhibitory action of PDHK2 activity in vitro (residual PDH activity after kinase reaction); format: biochemical; conditions: PDH/hPDHK2 complex, 45 min kinase reaction at room temperature; read-out: hPDHK2 IC50
T1 construct: made in house; host or cells: Escherichia coli BL21(DE3), pET17b vector
Protocol: The inhibitory action of PDHK activity was assessed indirectly by measuring the residual PDH activity after kinase reaction in the presence of a test compound.
In the case of human PDHK2 (hPDHK2, Genbank Accession No. BC040478.1), modified hPDHK2 cDNA wherein FLAG-Tag sequence was added to the N terminus of hPDHK2 cDNA clone (pReceiver-M01/PDK2-GeneCopoeia) was prepared by PCR and cloned into a vector (pET17b-Novagen). The recombinant construct was transformed into Escherichia coli (DH5α-TOYOBO). The recombinant clones were identified, and plasmid DNA was isolated and subjected to the DNA sequence analysis. One clone which had the expected nucleic acid sequence was selected for expression work.
For expression of hPDHK2 activity, Escherichia coli strain BL21(DE3) cells (Novagen) were transformed with the pET17b vector containing modified hPDHK2 cDNA. The Escherichia coli were grown to an optical density 0.6 ([…]) at 30° C. Protein expression was induced by the addition of 500 μmol/L isopropyl-β-thiogalactopyranoside. The Escherichia coli were cultured at 30° C. for 5 hr and harvested by centrifugation. Resuspension of the Escherichia coli paste was disrupted by a microfluidizer. FLAG-Tagged protein was purified using FLAG affinity gel. The gel was washed with 20 mmol/L HEPES-NaOH, 500 mmol/L sodium chloride, 1% ethylene glycol, and 0.1% Pluronic F-68 (pH 8.0), and the binding protein was eluted with 20 mmol/L HEPES-NaOH, 100 μg/mL FLAG peptide, 500 mmol/L sodium chloride, 1% ethylene glycol, and 0.1% Pluronic F-68 (pH 8.0). The eluted fractions containing FLAG-Tagged protein were pooled, dialyzed against 20 mmol/L HEPES-NaOH, 150 mmol/L sodium chloride, 0.5 mmol/L EDTA, 1% ethylene glycol, and 0.1% Pluronic F-68 (pH 8.0), and preserved at −80° C.
0.05 U/mL PDH and 0.8 μg/mL hPDHK2 were mixed in a buffer (50 mmol/L 3-morpholinopropanesulfonic acid (pH 7.0), 20 mmol/L dipotassium hydrogen phosphate, 60 mmol/L potassium chloride, 2 mmol/L magnesium chloride, 0.4 mmol/L EDTA, and 0.2% Pluronic F-68, 2 mmol/L dithiothreitol), and the mixture was incubated at 4° C. overnight to obtain a PDH/hPDHK2 complex. The test compounds were diluted with DMSO. […] DMSO (1.5 μL) was added to control wells instead of the test compound. […] The mixture was incubated at room temperature for 90 min, and the residual PDH activity was measured. The absorbance at 340 nm before and after PDH reaction was measured using a microplate reader to detect NADH produced by the PDH reaction. The hPDHK2 inhibition rate (%) of the test compound was calculated from the formula [{(PDH activity of test compound−PDH activity of control)/PDH activity of blank−PDH activity of control)}×100].

[1] = Metabolic stability test in rat liver microsome; format: in vitro ADME
[2] = Metabolic stability test in human liver microsome; format: in vitro ADME; conditions: 37° C., 5 μM
Protocol: Human liver microsome (manufactured by Xenotech, H0620, final concentration (after dilution), 0.2 mg protein/mL) was suspended in 100 mM potassium phosphate buffer (pH 7.4, containing β-nicotinamide adenine dinucleotide phosphate: 1.3 mM, D-glucose-6-phosphate: 3.3 mM, magnesium chloride: 3.3 mM, glucose-6-phosphate dehydrogenase: 0.45 U/mL), and further mixed with a test compound dissolved in MeCN/DMSO (95/5) (final concentration 5 μM). The mixture was incubated at 37° C. for 10 min and 60 min, acetonitrile containing formic acid (final concentration 0.1%) was added, and the mixture was centrifuged. The test compound (unmodified) in the supernatant was measured by high performance liquid chromatography/mass spectrometry (LC/MS) (manufactured by Waters, LC: Acquity UPLC, MS:SQ Detector or TQ Detector). The residual ratio (%) was calculated from the obtained measurement value.

IC50 (human PDHK2 (hPDHK2)) | stability in liver microsome (residual ratio %) ([1]; 10 min) | stability in liver microsome (residual ratio %) ([1]; 60 min) | stability in liver microsome (residual ratio %) ([2]; 10 min) | stability in liver microsome (residual ratio %) ([2]; 60 min) | Compound
4.9 nM | 98.3% | 98.5% | 98.9% | 97.2% | C[C@H](O)COc1cc(-c2cnn(C(C)(C)C(N)=O)c2)c2c(c1)[C@@](O)(C(F)(F)F)c1ccccc1-2 [compound (2), 2-(4-{(9R)-9-hydroxy-2-[(2S)-2-hydroxypropoxy]-9-(trifluoromethyl)-9H-fluoren-4-yl}-1H-pyrazol-1-yl)-2-methylpropanamide]
7.4 nM | 101.1% | 92.1% | 98.0% | 88.2% | Cn1cc(-c2cc(OCC(C)(C)O)cc3c2-c2ccccc2[C@]3(O)C(F)(F)F)cn1 [compound (B), (9R)-2-(2-Hydroxy-2-methylpropoxy)-4-(1-methyl-1H-pyrazol-4-yl)-9-(trifluoromethyl)-9H-fluoren-9-ol, reference compound]

From US20150018403A1, “FLUORENE-AMIDE COMPOUNDS AND PHARMACEUTICAL USE THEREOF” (JAPAN TOBACCO INC., priority 2013, published 2015)
